Measured values as given in ChEMBL document CHEMBL1201862, “PubChem BioAssay data set” (2004).
Active and inactive are the calls of the source.

Key:
Beta-lactamase [1] = target: Beta-lactamase (Salmonella choleraesuis (strain SC-B67), UniProt Q5J463); test: Epi-absorbance-based counterscreen for selective VIM-2 inhibitors: dose response biochemical high throughput screening assay to identify inhibitors of TEM-1 serine-beta-lactamase.
Beta-lactamase [2] = target: T1, Beta-lactamase (Pseudomonas aeruginosa, UniProt Q79MP6); test: IMP-1 metallo-beta-lactamase inhibitors, dose response, selectivity assay for VIM-2 inhibitor project, biochemical, epi-absorbance (AID 1920)
Beta-lactamase [3] = target: T1, Beta-lactamase; test: […] counterscreen for selective VIM-2 inhibitors: dose response biochemical high throughput screening assay to identify inhibitors of IMP-1 metallo-beta-lactamase.
HEK293 [4] = test: NOD1 signaling inhibitors, primary screen, cell-based, luminescence, uHTS (AID 1578); type: functional; conditions: Homo sapiens
HEK293 [5] = test: cells; type: functional, cell-based; conditions: Homo sapiens
HEK293 [6] = test: cells; type: functional, cell-based; conditions: Homo sapiens; remark: listed apart in the source
[7] = target: Nucleotide-binding oligomerization domain-containing protein 2 (Homo sapiens, UniProt Q9HC29); test: NOD2 signaling inhibitors, cell-based, luminescence, uHTS, HEK293 (AID 1566); type: functional
HEK293 [8] = test: NOD2 signaling inhibitors in MDP-stimulated cells, cell-based, uHTS, luminescence (AID 2001); type: functional; conditions: Homo sapiens
HEK293 [9] = test: cells; type: functional, cell-based; conditions: Homo sapiens; remark: listed apart in the source
[10] = target: T2, Corticotropin-releasing factor receptor 2/Corticotropin-releasing factor-binding protein (Homo sapiens, UniProt P24387+Q13324); test: Dose Response confirmation of uHTS hits for small molecule antagonists of the CRF-binding protein and CRF-R2 receptor complex.; type: functional; conditions: read-out: IC50_Mean
T2 sequence (Q13324 whole entry): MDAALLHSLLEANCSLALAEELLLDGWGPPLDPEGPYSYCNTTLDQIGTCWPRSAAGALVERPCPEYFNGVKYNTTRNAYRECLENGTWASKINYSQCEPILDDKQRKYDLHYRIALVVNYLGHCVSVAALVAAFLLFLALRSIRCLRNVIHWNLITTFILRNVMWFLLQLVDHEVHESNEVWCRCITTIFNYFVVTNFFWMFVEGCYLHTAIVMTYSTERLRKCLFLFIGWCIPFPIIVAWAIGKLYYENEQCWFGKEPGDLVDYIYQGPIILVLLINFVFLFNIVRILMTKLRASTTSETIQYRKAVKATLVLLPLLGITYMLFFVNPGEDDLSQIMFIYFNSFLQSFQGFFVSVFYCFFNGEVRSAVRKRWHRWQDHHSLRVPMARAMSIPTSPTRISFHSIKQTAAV
T2 sequence (P24387 whole entry): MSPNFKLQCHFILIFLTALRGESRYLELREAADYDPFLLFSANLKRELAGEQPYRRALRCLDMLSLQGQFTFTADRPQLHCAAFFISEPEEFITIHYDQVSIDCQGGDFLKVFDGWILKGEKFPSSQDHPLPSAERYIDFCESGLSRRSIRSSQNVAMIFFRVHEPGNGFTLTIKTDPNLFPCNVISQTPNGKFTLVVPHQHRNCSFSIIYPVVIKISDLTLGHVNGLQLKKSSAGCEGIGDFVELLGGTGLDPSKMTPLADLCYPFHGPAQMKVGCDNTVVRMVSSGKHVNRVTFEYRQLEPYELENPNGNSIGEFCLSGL

[11] = target: T2, Corticotropin-releasing factor receptor 2/Corticotropin-releasing factor-binding protein; test: activators of CRF receptor 2 with binding protein – uHTS hits, confirmation (AID 602473); type: functional; conditions: read-out: EC50_Mean
[12] = CRF-BP/CRF-R2 complex antagonists, dose response, cell-based, uHTS hits, 384-well (AID 651639); type: functional, Homo sapiens; conditions: read-out: IC50_Mean
Fatty acid synthase [13] = target: T3, Fatty acid synthase (Homo sapiens, UniProt P49327); test: FAS thioesterase domain inhibitors, dose response, biochemical, endpoint fluorescence intensity, uHTS hits (AID 624327); type: functional;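 further: fluorescence from hydrolysis of an O-methyl fluorescein acyl ester substrate by the enzyme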
Fatty acid synthase [14] = target: T3, Fatty acid synthase; test: FAS thioesterase domain inhibitors, dose response, biochemical, kinetic fluorescence intensity (AID 624326); type: functional;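 further: rate of fluorescence rise from hydrolysis of a fluorogenic O-methyl fluorescein ester substrate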
[15] = Luminescence Cell-Based Dose Retest to Confirm Inhibitors of Cancer Stem Cells. [Related pubchem assays (depositor defined):AID2717, AID2721]; type: functional; conditions: Homo sapiens
[16] = ADAM10 inhibitors, peptide cleavage, dose response, biochemical, QFRET (AID 743254);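 further: ADAM10 enzyme with the DM2 quenched FRET peptide as substrate; EDANS fluorescence gain as the protease cuts the substrate; inhibitor potency against ADAM10 proteolytic activity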
[17] = target: T4, Disintegrin and metalloproteinase domain-containing protein 17 (Homo sapiens, UniProt P78536); test: ADAM17 protease inhibitors, dose response, counter-screen for ADAM10 exosite inhibitor project, biochemical, quenched FRET substrate (AID 743253)
[18] = target: Heat shock protein HSP 90-alpha (Homo sapiens, UniProt P07900); type: functional, organism-based
Vero = Vero cell cytotoxicity, cytotoxicity control for flavivirus capping enzyme inhibitors (AID 588742); type: functional; conditions: Chlorocebus sabaeus
[19] = target: T5, COUP transcription factor 2 (Homo sapiens, UniProt P24468); test: Luminescence-based cell-based high throughput dose response assay to identify inhibitors of COUP-TFII (NR2F2).; type: functional;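 further: HEK293 cells transiently cotransfected with COUP-TFII expression vector and reporter; luciferase reporter luminescence driven by COUP-TFII from the pX2-168 reporter plasmid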
T5 sequence (P24468 whole entry): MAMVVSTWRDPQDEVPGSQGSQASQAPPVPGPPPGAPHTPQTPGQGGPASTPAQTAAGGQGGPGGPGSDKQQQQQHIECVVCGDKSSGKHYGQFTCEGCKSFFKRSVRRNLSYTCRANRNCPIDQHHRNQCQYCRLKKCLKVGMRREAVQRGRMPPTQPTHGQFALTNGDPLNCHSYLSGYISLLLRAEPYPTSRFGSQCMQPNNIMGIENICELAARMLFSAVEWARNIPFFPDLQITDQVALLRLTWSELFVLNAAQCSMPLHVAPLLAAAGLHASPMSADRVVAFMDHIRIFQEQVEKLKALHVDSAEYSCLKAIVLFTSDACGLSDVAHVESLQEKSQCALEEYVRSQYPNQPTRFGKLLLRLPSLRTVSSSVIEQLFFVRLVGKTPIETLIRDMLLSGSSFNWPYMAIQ

[20] = target: T4, Disintegrin and metalloproteinase domain-containing protein 17; test: exosite inhibitors of ADAM17, dose response, biochemical (AID 743260)
[21] = ADAM10 protease inhibitors, dose response, selectivity assay for ADAM17 exosite inhibitor project, biochemical, FRET peptide substrate, recombinant human ADAM10 (AID 743259);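 further: ADAM10 enzyme cleaving a FRET peptide substrate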
[22] = target: T6, Fructose-bisphosphate aldolase (Mycobacterium tuberculosis, UniProt P9WQA3); test: Fluorescence-based biochemical high throughput dose response assay for inhibitors of the fructose-bisphosphate aldolase (FBA) of M. tuberculosis.; type: functional
T6 sequence (P9WQA3 whole entry): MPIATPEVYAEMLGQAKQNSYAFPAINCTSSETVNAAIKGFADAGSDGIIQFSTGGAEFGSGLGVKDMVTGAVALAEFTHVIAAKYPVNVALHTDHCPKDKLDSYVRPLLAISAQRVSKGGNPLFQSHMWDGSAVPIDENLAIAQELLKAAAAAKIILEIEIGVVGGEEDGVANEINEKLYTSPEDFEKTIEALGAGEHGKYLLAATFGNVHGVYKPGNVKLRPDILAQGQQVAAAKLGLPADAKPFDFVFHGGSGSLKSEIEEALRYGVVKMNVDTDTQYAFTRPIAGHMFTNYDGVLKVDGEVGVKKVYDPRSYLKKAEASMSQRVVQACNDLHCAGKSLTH

T4 sequence (P78536 whole entry, the tested form may be a part): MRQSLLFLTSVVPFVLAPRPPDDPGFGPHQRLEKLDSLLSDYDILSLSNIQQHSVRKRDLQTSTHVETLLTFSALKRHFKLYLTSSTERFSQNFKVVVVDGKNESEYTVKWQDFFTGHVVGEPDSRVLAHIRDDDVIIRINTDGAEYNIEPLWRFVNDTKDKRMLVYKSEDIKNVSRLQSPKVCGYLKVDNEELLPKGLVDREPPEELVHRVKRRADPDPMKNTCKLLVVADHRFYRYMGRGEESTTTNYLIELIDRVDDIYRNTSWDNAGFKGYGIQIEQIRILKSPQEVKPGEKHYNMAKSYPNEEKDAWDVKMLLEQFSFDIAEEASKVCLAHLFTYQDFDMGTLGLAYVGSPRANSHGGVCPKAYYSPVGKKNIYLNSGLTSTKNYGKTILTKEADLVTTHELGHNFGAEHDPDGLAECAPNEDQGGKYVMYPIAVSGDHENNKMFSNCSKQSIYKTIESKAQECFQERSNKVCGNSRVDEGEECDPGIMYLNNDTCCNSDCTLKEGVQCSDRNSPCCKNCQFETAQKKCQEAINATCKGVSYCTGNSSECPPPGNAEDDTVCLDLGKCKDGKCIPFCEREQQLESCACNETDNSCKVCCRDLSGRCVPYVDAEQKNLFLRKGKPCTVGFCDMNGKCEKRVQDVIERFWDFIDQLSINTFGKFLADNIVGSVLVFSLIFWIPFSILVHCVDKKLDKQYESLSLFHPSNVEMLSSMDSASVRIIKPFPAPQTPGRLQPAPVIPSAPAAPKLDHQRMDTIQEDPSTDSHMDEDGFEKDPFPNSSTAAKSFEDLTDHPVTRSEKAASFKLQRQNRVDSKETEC
T1 sequence (Q79MP6 whole entry): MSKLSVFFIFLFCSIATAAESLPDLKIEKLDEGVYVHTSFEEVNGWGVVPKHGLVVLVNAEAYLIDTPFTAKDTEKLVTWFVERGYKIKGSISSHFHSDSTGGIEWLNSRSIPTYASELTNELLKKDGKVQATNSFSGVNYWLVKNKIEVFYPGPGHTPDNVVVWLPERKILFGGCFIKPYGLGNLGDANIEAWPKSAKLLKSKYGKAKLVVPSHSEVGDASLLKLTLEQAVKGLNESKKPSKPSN
T3 sequence (P49327 whole entry, the tested form may be a part): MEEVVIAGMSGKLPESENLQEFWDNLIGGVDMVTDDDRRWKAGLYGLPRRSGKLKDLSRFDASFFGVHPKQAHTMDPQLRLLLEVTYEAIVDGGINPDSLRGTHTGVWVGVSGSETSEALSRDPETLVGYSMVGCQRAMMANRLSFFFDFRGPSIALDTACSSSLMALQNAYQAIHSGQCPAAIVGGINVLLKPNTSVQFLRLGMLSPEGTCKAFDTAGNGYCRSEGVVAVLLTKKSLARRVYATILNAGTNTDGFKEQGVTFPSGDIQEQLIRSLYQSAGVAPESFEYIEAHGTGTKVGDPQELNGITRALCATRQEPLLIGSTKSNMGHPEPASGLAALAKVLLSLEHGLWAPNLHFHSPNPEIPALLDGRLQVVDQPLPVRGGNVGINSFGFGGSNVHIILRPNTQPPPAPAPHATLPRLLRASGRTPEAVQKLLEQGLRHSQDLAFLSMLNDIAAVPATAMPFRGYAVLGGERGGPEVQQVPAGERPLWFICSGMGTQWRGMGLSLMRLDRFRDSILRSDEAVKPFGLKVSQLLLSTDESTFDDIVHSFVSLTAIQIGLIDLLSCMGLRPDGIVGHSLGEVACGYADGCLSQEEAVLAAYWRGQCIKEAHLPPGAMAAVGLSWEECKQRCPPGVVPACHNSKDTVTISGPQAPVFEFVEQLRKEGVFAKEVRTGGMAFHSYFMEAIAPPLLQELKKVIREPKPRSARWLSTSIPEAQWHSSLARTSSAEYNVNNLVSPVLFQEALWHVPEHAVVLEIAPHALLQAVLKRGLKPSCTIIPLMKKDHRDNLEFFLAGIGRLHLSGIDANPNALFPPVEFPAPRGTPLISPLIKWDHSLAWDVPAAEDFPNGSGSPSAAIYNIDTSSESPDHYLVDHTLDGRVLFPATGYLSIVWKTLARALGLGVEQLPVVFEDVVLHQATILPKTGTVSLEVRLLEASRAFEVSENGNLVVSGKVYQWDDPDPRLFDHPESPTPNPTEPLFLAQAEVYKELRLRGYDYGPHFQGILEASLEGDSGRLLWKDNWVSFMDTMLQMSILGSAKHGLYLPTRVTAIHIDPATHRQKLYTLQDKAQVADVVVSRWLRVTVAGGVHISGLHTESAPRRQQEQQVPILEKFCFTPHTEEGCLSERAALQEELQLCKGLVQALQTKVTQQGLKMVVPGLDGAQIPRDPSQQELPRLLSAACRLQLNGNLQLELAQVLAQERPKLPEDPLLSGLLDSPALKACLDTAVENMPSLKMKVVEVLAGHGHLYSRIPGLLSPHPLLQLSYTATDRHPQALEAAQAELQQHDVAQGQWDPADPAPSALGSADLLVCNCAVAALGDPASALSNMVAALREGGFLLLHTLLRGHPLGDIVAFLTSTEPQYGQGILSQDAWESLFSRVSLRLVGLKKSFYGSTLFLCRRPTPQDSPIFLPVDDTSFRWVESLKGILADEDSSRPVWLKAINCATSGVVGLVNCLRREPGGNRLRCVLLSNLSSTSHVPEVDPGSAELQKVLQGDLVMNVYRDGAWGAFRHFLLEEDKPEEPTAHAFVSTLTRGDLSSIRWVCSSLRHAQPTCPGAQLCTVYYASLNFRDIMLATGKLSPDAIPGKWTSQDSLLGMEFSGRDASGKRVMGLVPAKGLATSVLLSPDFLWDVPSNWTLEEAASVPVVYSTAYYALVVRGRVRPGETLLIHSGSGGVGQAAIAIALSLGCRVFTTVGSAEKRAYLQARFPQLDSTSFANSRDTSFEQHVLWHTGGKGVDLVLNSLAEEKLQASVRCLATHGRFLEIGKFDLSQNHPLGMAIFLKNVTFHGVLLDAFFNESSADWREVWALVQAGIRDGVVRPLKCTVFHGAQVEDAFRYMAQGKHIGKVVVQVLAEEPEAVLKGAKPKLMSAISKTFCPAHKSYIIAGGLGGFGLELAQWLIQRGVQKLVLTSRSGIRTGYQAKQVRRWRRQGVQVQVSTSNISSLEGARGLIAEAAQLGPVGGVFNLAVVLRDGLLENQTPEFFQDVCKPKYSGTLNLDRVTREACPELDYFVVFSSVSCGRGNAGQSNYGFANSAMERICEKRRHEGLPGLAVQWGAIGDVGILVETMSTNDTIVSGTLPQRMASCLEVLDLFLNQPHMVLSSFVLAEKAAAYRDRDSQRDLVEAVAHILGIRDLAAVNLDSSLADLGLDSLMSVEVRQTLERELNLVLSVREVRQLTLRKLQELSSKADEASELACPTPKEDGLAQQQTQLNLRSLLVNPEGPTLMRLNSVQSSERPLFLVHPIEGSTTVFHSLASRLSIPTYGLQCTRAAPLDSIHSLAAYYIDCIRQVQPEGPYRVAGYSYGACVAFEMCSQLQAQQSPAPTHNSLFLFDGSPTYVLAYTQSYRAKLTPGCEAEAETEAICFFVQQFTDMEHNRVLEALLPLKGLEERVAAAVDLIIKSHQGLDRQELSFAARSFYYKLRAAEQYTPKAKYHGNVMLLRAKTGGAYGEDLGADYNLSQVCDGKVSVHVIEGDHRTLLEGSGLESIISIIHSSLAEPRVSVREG
Chain of Beta-lactamase (Salmonella choleraesuis (strain SC-B67), UniProt Q5J463) (Q5J463 whole entry): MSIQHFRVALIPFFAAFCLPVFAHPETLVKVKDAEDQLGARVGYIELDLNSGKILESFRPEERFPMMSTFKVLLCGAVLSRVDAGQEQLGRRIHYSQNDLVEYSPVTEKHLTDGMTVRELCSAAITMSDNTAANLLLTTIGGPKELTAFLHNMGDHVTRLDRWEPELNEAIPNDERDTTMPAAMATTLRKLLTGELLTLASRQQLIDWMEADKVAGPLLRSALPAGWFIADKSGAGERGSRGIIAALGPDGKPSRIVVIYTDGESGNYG
Chain of Nucleotide-binding oligomerization domain-containing protein 2 (Q9HC29 whole entry, the tested form may be a part): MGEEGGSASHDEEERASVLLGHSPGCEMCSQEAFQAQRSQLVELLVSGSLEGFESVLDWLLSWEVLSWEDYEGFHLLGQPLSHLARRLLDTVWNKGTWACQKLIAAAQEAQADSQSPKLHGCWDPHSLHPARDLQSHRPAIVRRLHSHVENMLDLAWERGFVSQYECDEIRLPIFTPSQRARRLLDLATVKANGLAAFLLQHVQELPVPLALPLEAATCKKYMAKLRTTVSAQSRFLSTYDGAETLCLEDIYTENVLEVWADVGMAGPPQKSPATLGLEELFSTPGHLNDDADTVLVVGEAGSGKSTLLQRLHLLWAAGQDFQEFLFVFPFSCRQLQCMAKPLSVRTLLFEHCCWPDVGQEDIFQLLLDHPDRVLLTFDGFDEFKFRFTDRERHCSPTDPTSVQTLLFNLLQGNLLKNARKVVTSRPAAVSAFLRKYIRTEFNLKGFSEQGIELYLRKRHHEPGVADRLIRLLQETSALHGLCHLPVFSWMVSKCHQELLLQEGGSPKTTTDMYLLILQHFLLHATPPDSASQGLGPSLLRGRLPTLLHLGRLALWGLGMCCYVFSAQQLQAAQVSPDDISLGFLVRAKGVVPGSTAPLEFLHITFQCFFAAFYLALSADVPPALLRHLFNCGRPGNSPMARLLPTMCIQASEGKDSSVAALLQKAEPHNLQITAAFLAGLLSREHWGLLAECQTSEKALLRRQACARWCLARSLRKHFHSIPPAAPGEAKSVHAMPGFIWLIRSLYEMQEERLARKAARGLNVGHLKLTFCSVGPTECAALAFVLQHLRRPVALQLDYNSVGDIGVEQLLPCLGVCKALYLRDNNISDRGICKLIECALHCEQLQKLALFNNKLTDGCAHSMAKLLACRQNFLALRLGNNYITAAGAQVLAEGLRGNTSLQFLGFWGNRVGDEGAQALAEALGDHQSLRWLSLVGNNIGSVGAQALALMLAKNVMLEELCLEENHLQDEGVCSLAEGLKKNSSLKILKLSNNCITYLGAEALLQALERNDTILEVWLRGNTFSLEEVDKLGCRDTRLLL

## O=[N+]([O-])c1ccc(-c2ccccc2)c([As](=O)(O)O)c1
Beta-lactamase [1]
  IC50: > 59.6 µM (inactive)
Beta-lactamase [2]
  IC50: > 59.6 µM (inactive)
Beta-lactamase [3]
  IC50: > 59.6 µM (inactive)

## O=C1S/C(=C\c2ccc(O)c([N+](=O)[O-])c2)C(=O)N1Cc1cccc([N+](=O)[O-])c1
HEK293 [4]
  EC50: 4.33 µM (active)
HEK293 [5]
  IC50: 7.53 µM (active)
HEK293 [6]
  IC50: 17.1 µM (active)
[7]
  EC50: 4.39 µM (active)
HEK293 [8]
  IC50: 5.79 µM (inactive)
HEK293 [9]
  IC50: > 20 µM (inactive)
[10]
  IC50: 4.71 µM (active)
[11]
  EC50: > 53 µM (inactive)
[12]
  IC50: > 20 µM (inactive)
Fatty acid synthase [13]
  IC50: 3.83 µM (active)
Fatty acid synthase [14]
  IC50: 3.73 µM (active)

## Cc1ccccc1N=C(NOCc1ccc(Cl)cc1Cl)c1nonc1N
[15]
  AC50: 3.53 µM (active)
[16]
  IC50: 13.3 µM (inactive)

## Cc1ccccc1NC(=NOCc1ccc(Cl)cc1Cl)c1nonc1N
[17]
  IC50: > 69.5 µM (inactive)

## O=C(/C=C/c1ccc([N+](=O)[O-])cc1)c1ccccc(=O)c1O
[18]
  AC50: 1.54 µM (active)
Vero
  CC50: 1.87 µM (active)
[19]
  IC50: 9.51 µM (active)
[16]
  IC50: 8.35 µM (active)
[17]
  IC50: 11.8 µM (inactive)

## COC(=O)[C@]12C[C@H](CC(=O)NCCCCc3ccccc3)C(=O)N(Cc3cccc4ccccc34)C1=C[C@H](C(C)C)O[C@@H]2C1CC1
[20]
  IC50: > 69.5 µM (inactive)
[21]
  IC50: > 7.72 µM (active)

## CN(C)/C=N/c1nc2nccc(-c3cccc(Cl)c3)n2n1
[22]
  IC50: 1.15 µM (active)
